From US8859574B2 (IRM LLC, priority 2008, dated 2014)

Biological target: T1, IGF-1R Ba/F3 (Homo sapiens, UniProt P08069)
T1 construct: fused on or other part: TEL- (or BCR-) IGF-1R in Ba/F3: the kinase part holds the site
Experiment: Ba/F3 Cell Viability Inhibition Assay (IGF-1R Ba/F3)
Assay type: cell-based, murine
Details: Tel-TK transformed Ba/F3 cells, 48 hours, Britelite luminescence
In short: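 IL-3-independent murine Ba/F3 cells transformed with a TEL/BCR-fused IGF-1R kinase were seeded at 3750 cells/well and exposed to serially diluted compound for 48 h at 37 °C. Viability was read by Britelite luminescence. IC50 is the concentration giving 50% of DMSO-control viability, from a logistic fit.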

T1 sequence (P08069 999-1274 limits assumed): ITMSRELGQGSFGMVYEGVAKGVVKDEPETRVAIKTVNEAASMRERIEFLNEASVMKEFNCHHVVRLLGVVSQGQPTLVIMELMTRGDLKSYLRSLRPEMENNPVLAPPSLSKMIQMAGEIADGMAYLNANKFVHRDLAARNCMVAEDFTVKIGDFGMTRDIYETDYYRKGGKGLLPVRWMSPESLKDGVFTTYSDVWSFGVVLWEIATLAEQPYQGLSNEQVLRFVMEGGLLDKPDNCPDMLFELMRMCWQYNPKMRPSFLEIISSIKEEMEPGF

Compared with `Cc1cc(Nc2nc(Nc3cc(Cl)c(C4CCN(CCS(=O)(=O)N5CCC5)CC4)cc3C)ncc2Cl)n[nH]1` [Compound 60, N2-(4-(1-(2-(azetidin-1-ylsulfonyl)ethyl)piperidin-4-yl)-5-chloro-2-methylphenyl)-5-chloro-N4-(5-methyl-1H-pyrazol-3-yl)pyrimidine-2,4-diamine], `Cc1cc(Nc2nc(Nc3cc(C)c(C4CCN(S(=O)(=O)CCCN5C[C@@H](O)[C@H](O)C5)CC4)cc3C)ncc2Cl)n[nH]1` [Compound 196, (3R,4R)-1-(3-(4-(4-(5-chloro-4-(5-methyl-1H-pyrazol-3-ylamino)pyrimidin-2-ylamino)-2,5-dimethylphenyl)piperidin-1-ylsulfonyl)propyl)pyrrolidine-3,4-diol] is 34-fold higher in IC50: 11 nM for the first, 370 nM for the second. The first is the more potent here.

Going from `Cc1cc(Nc2nc(Nc3cc(C)c(C4CCN(C(=O)[C@@H]5CCCCN5C(C)C)CC4)cc3F)ncc2Cl)n[nH]1` [Compound 125, (S)-(4-(4-(5-chloro-4-(5-methyl-1H-pyrazol-3-ylamino)pyrimidin-2-ylamino)-5-fluoro-2-methylphenyl)piperidin-1-yl)(1-isopropylpiperidin-2-yl)methanone] to `CNC(C)C(=O)N1CCC(c2cc(F)c(Nc3ncc(Cl)c(Nc4cc(C)[nH]n4)n3)cc2C)CC1` (centres unmarked) [Compound 85, 1-(4-(4-(5-chloro-4-(5-methyl-1H-pyrazol-3-ylamino)pyrimidin-2-ylamino)-5-fluoro-2-methylphenyl)piperidin-1-yl)-2-(methylamino)propan-1-one], the IC50 rises from 12 nM to 42 nM (3.5-fold).

Going from `Cc1cc(Nc2nc(Nc3cc(C)c(C4CCNCC4)cc3F)ncc2C(F)(F)F)n[nH]1` [Compound 4, N2-(2-fluoro-5-methyl-4-(piperidin-4-yl)phenyl)-N4-(5-methyl-1H-pyrazol-3-yl)-5-(trifluoromethyl)pyrimidine-2,4-diamine] to `Cc1cc(Nc2nc(Nc3cc(C4CCNCC4)c(F)cc3C)ncc2Cl)n[nH]1` [Compound 8, 5-chloro-N2-(4-fluoro-2-methyl-5-(piperidin-4-yl)phenyl)-N4-(5-methyl-1H-pyrazol-3-yl)pyrimidine-2,4-diamine], the IC50 rises from 150 nM to 1930 nM (13-fold). The first is the more potent here.

First: Cc1cc(Nc2nc(Nc3cc(C)c(C4CCN(C(=O)C5(N)CC5)CC4)cc3F)ncc2Cl)n[nH]1 [Compound 93, (1-aminocyclopropyl)(4-(4-(5-chloro-4-(5-methyl-1H-pyrazol-3-ylamino)pyrimidin-2-ylamino)-5-fluoro-2-methylphenyl)piperidin-1-yl)methanone]
Second: Cc1cc(Nc2nc(Nc3cc(C)c(C4CCN(C(=O)CN)CC4)cc3F)ncc2Cl)n[nH]1 [Compound 79, 2-amino-1-(4-(4-(5-chloro-4-(5-methyl-1H-pyrazol-3-ylamino)pyrimidin-2-ylamino)-5-fluoro-2-methylphenyl)piperidin-1-yl)ethanone]
The IC50 of the first is 2.3-fold lower: 33 nM for the first, 75 nM for the second.

Compared with `Cc1cc(Nc2nc(Nc3cc(C)c(C4CCN(C)C(C)C4)cc3F)ncc2Cl)n[nH]1` (centres unmarked) [Compound 275, 5-chloro-N2-(4-(1,2-dimethylpiperidin-4-yl)-2-fluoro-5-methylphenyl)-N4-(5-methyl-1H-pyrazol-3-yl)pyrimidine-2,4-diamine], `Cc1cc(Nc2nc(Nc3cc(C)c(C4CCN(CCC#N)CC4)cc3F)ncc2Cl)n[nH]1` [Compound 200, 3-(4-(4-(5-chloro-4-(5-methyl-1H-pyrazol-3-ylamino)pyrimidin-2-ylamino)-5-fluoro-2-methylphenyl)piperidin-1-yl)propanenitrile] is 4-fold higher in IC50: 9 nM for the first, 36 nM for the second.

`Cc1cc(Nc2nc(Nc3cc(C)c(C4CCN(C(C)C)CC4)cc3C)ncc2Cl)n[nH]1` [Compound 12, 5-chloro-N2-(4-(1-isopropylpiperidin-4-yl)-2,5-dimethylphenyl)-N4-(5-methyl-1H-pyrazol-3-yl)pyrimidine-2,4-diamine] and `CCN1CCC(c2cc(C)c(Nc3ncc(Cl)c(Nc4cc(C)[nH]n4)n3)cc2C)CC1` [Compound 211, 5-chloro-N2-(4-(1-ethylpiperidin-4-yl)-2,5-dimethylphenyl)-N4-(5-methyl-1H-pyrazol-3-yl)pyrimidine-2,4-diamine] are within 1.5-fold of each other in IC50: 10 nM for the first, 9 nM for the second.

First: Cc1cc(Nc2nc(Nc3cc(C)c(C4CCN(C(=O)c5c(C)nn(C)c5C)CC4)cc3F)ncc2Cl)n[nH]1 [Compound 129, (4-(4-(5-chloro-4-(5-methyl-1H-pyrazol-3-ylamino)pyrimidin-2-ylamino)-5-fluoro-2-methylphenyl)piperidin-1-yl)(1,3,5-trimethyl-1H-pyrazol-4-yl)methanone]
Second: Cc1cc(Nc2nc(Nc3cc(C)c(C4CCN(C(=O)c5cnn(C)c5C(F)(F)F)CC4)cc3F)ncc2Cl)n[nH]1 [Compound 130, (4-(4-(5-chloro-4-(5-methyl-1H-pyrazol-3-ylamino)pyrimidin-2-ylamino)-5-fluoro-2-methylphenyl)piperidin-1-yl)(1-methyl-5-(trifluoromethyl)-1H-pyrazol-4-yl)methanone]
The IC50 of the first is 2.4-fold lower: 25 nM for the first, 61 nM for the second. The first is the more potent here.

Compared with `CC[N+]1([O-])CCC(c2cc(F)c(Nc3ncc(Cl)c(Nc4cc(C)[nH]n4)n3)cc2C)CC1` (centres unmarked) [Compound 289, 4-(4-(5-chloro-4-(5-methyl-1H-pyrazol-3-ylamino)pyrimidin-2-ylamino)-5-fluoro-2-methylphenyl)-1-ethylpiperidine-1-oxide], `CCc1cc(Nc2nc(Nc3cc(C)c(C4CCN(CC)CC4)cc3F)ncc2Cl)n[nH]1` [Compound 268, 5-chloro-N4-(5-ethyl-1H-pyrazol-3-yl)-N2-(4-(1-ethylpiperidin-4-yl)-2-fluoro-5-methylphenyl)pyrimidine-2,4-diamine] is 17-fold lower in IC50: 370 nM for the first, 22 nM for the second. The second is the more potent here.

`Cc1cc(Nc2nc(Nc3cc(C)c(C4CCN(C(=O)n5cnnn5)CC4)cc3F)ncc2Cl)n[nH]1` [Compound 140, (4-(4-(5-chloro-4-(5-methyl-1H-pyrazol-3-ylamino)pyrimidin-2-ylamino)-5-fluoro-2-methylphenyl)piperidin-1-yl)(1H-tetrazol-1-yl)methanone] and `Cc1cc(Nc2nc(Nc3cc(C)c(C4CCN(CCC(N)=O)CC4)cc3F)ncc2Cl)n[nH]1` [Compound 248, 3-(4-(4-(5-chloro-4-(5-methyl-1H-pyrazol-3-ylamino)pyrimidin-2-ylamino)-5-fluoro-2-methylphenyl)piperidin-1-yl)propanamide] are within 1.5-fold of each other in IC50: 139 nM for the first, 140 nM for the second.

Compared with `COc1cc(Nc2ncc(Cl)c(Nc3cc(C)[nH]n3)n2)c(C)cc1C1CCN(C[C@H](O)C(F)(F)F)CC1` [Compound 213, (S)-3-(4-(4-(5-chloro-4-(5-methyl-1H-pyrazol-3-ylamino)pyrimidin-2-ylamino)-2-methoxy-5-methylphenyl)piperidin-1-yl)-1,1,1-trifluoropropan-2-ol], `Cc1cc(Nc2nc(Nc3cc(C)c(C4CCCCN4C[C@H](O)C(F)(F)F)cc3C)ncc2Cl)n[nH]1` (stereo partly drawn) [Compound 197, (2S)-3-(2-(4-(5-chloro-4-(5-methyl-1H-pyrazol-3-ylamino)pyrimidin-2-ylamino)-2,5-dimethylphenyl)piperidin-1-yl)-1,1,1-trifluoropropan-2-ol] is 18-fold higher in IC50: 12 nM for the first, 210 nM for the second. The first is the more potent here.

Compared with `Cc1cc(Nc2nc(Nc3cc(C)c(C4CCN(CCC(F)(F)F)CC4)cc3F)ncc2Cl)n[nH]1` [Compound 24, 5-chloro-N^2-(2-fluoro-5-methyl-4-(1-(3,3,3-trifluoropropyl)piperidin-4-yl)phenyl)-N^4-(5-methyl-1H-pyrazol-3-yl)pyrimidine-2,4-diamine], `Cc1cc(Nc2nc(Nc3cc(C)c(C4CCN(CC(F)(F)F)CC4)cc3F)ncc2Cl)n[nH]1` [Compound 26, 5-chloro-N2-(2-fluoro-5-methyl-4-(1-(2,2,2-trifluoroethyl)piperidin-4-yl)phenyl)-N4-(5-methyl-1H-pyrazol-3-yl)pyrimidine-2,4-diamine] is 1.7-fold higher in IC50: 85 nM for the first, 142 nM for the second. The first is the more potent here.

Going from `Cc1cc(Nc2nc(Nc3cc(C)c(C4=CCNCC4)cc3F)ncc2Cl)n[nH]1` [Compound 150, 5-chloro-N2-(2-fluoro-5-methyl-4-(1,2,3,6-tetrahydropyridin-4-yl)phenyl)-N4-(5-methyl-1H-pyrazol-3-yl)pyrimidine-2,4-diamine] to `Cc1cc(Nc2nc(Nc3cc(C)c(C4CCN(C5=CC(=O)CC5)CC4)cc3F)ncc2Cl)n[nH]1` [Compound 282, 3-(4-(4-(5-Chloro-4-(5-methyl-1H-pyrazol-3-ylamino)pyrimidin-2-ylamino)-5-fluoro-2-methylphenyl)piperidin-1-yl)cyclopent-2-en-one], the IC50 rises from 25 nM to 48 nM (1.9-fold).

`Cc1cc(Nc2nc(Nc3cc(C)c(C4CCN(C5CCC(O)CC5)CC4)cc3F)ncc2Cl)n[nH]1` (centres unmarked) [Compound 298, 4-(4-(4-(5-chloro-4-(5-methyl-1H-pyrazol-3-ylamino)pyrimidin-2-ylamino)-5-fluoro-2-methylphenyl)piperidin-1-yl)cyclohexanol] and `Cc1cc(Nc2nc(Nc3cc(C)c(C4CCN(Cc5cncnc5)CC4)cc3F)ncc2Cl)n[nH]1` [Compound 314, 5-Chloro-N^2-(2-fluoro-5-methyl-4-(1-(pyrimidin-5-ylmethyl)piperidin-4-yl)phenyl)-N^4-(5-methyl-1H-pyrazol-3-yl)pyrimidine-2,4-diamine] are within 1.5-fold of each other in IC50: 26 nM for the first, 37 nM for the second.

`Cc1cc(Nc2nc(Nc3cc(C)c(C4CCCN(CC(N)=O)C4)cc3C)ncc2Cl)n[nH]1` (centres unmarked) [Compound 41, 2-(3-(4-(5-chloro-4-(5-methyl-1H-pyrazol-3-ylamino)pyrimidin-2-ylamino)-2,5-dimethylphenyl)piperidin-1-yl)acetamide] and `CNC(=O)CN1CCC(c2cc(C)c(Nc3ncc(Cl)c(Nc4cc(C(F)(F)F)[nH]n4)n3)cc2C)CC1` [Compound 220, 2-(4-(4-(5-chloro-4-(5-(trifluoromethyl)-1H-pyrazol-3-ylamino)pyrimidin-2-ylamino)-2,5-dimethylphenyl)piperidin-1-yl)-N-methylacetamide] are within 1.5-fold of each other in IC50: 26 nM for the first, 37 nM for the second.

`COc1cc(Nc2ncc(Cl)c(Nc3cc(C)[nH]n3)n2)c(C)cc1C1CCN(C(=O)CN(C)C)CC1` [Compound 76, 1-(4-(4-(5-chloro-4-(5-methyl-1H-pyrazol-3-ylamino)pyrimidin-2-ylamino)-2-methoxy-5-methylphenyl)piperidin-1-yl)-2-(dimethylamino)ethanone] gave an IC50 of 9 nM.
